Test results as given in paper PMC11327025 (2024).

Experiments:
[1] = system: Apt11 (FAM) (DNA, aptamer) CTGTTTGGTACGCAG; assay: graphene oxide fluorescence assay; conditions: aptamer 0-250 nM titrated against 1.5 μM MNZ, 2 h
[2] = system: Apt0 (FAM) (DNA, aptamer) CTGTTTGGTAGGCAG; assay: graphene oxide fluorescence assay; conditions: aptamer 0-250 nM titrated against 1.5 μM MNZ, 2 h
[3] = system: Apt8 (FAM) (DNA, aptamer) CTGTTTGCTAGGCAG; assay: graphene oxide fluorescence assay; conditions: aptamer 0-250 nM titrated against 1.5 μM MNZ, 2 h
[4] = system: Apt1-3 (DNA, aptamer) CTGTTTGCTACGCAG; assay: exonuclease I/III digestion, SYBR Gold fluorescence; conditions: 0.25 μM MNZ, 25 °C, aptamer varied
[5] = system: Apt1-3 (FAM) (DNA, aptamer) CTGTTTGCTACGCAG; assay: graphene oxide fluorescence assay; conditions: aptamer 0-250 nM titrated against 1.5 μM MNZ, 2 h; abstract prints error 25.59

Kd [1]: 151.49 ± 56.08 nM
Kd [2]: 154.28 ± 51.87 nM
Kd [3]: 126.18 ± 41.91 nM
binding [4]: yes
Kd [5]: 92.60 ± 25.58 nM
SMILES: Cc1ncc([N+](=O)[O-])n1CCO
